Assay results published in PMC4854315, “Discovery of a novel allosteric inhibitor-binding site in ERK5: comparison with the canonical kinase hinge ATP-binding site” (Acta Crystallographica. Section D, Structural Biology, 2016).

Experiments:
Test in all cases: Z'-LYTE kinase panel
Type in all cases: biochemical
ALK = target: T1, ALK (Homo sapiens, UniProt Q9UM73)
T1 construct: purchased ThermoFisher (SelectScreen, Z'-LYTE)
Outline: (§1)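 Each compound was added at 10 µM, kinase activity was then measured via the standard Z′-LYTE assay, and percentage inhibition was calculated; 225 kinases were covered.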

CLK3 = target: T2, CLK3 (Homo sapiens, UniProt P49761)
T2 construct: purchased ThermoFisher (SelectScreen, Z'-LYTE)
Outline: as §1

CSNK1E (CK1 epsilon) = target: T3, CSNK1E (CK1 epsilon) (Homo sapiens, UniProt P49674)
T3 construct: purchased ThermoFisher (SelectScreen, Z'-LYTE)
T3 sequence (P49674 whole entry): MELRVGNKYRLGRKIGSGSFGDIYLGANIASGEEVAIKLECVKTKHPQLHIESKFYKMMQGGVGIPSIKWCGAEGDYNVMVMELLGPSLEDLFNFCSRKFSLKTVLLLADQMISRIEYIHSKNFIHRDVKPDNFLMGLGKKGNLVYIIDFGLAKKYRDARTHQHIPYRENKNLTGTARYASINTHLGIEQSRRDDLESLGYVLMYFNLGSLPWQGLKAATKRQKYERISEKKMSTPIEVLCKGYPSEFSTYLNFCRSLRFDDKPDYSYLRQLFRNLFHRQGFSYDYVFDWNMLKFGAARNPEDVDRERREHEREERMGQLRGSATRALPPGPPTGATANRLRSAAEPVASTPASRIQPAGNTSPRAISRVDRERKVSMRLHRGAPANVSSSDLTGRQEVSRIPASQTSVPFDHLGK
Outline: as §1

FLT3 = target: T4, FLT3 (Homo sapiens, UniProt P36888)
T4 construct: purchased ThermoFisher (SelectScreen, Z'-LYTE)
T4 sequence (P36888 27-993): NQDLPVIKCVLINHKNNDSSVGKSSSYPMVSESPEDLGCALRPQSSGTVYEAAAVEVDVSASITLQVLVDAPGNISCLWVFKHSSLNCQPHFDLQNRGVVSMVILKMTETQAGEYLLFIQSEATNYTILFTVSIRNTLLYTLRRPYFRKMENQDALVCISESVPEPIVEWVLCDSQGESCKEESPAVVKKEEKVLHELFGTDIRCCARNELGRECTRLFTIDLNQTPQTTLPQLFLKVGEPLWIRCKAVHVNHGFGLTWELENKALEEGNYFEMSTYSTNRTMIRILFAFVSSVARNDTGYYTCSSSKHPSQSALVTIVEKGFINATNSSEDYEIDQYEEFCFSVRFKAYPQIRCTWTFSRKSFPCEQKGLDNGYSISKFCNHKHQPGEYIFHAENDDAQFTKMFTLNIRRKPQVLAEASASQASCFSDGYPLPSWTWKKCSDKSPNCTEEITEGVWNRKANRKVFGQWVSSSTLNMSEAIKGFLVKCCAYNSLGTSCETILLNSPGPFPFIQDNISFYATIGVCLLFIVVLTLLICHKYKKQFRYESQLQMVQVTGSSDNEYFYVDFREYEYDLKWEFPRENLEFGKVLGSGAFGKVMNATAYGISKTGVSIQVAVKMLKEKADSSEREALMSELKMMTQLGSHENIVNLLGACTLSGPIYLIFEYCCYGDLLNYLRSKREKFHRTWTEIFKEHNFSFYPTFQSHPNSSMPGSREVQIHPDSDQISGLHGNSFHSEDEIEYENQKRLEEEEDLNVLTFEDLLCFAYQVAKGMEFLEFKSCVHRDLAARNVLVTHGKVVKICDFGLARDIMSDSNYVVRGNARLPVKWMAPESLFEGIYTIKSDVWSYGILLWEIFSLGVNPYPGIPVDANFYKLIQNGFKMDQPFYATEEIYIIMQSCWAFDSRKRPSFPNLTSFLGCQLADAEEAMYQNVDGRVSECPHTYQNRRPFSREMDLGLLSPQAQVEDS
Outline: as §1

JAK2 JH1 JH2 = target: T5, JAK2 JH1 JH2 (Homo sapiens, UniProt O60674)
T5 construct: JAK2 JH1 JH2; purchased ThermoFisher (SelectScreen, Z'-LYTE)
T5 sequence (O60674 532-1132 limits assumed): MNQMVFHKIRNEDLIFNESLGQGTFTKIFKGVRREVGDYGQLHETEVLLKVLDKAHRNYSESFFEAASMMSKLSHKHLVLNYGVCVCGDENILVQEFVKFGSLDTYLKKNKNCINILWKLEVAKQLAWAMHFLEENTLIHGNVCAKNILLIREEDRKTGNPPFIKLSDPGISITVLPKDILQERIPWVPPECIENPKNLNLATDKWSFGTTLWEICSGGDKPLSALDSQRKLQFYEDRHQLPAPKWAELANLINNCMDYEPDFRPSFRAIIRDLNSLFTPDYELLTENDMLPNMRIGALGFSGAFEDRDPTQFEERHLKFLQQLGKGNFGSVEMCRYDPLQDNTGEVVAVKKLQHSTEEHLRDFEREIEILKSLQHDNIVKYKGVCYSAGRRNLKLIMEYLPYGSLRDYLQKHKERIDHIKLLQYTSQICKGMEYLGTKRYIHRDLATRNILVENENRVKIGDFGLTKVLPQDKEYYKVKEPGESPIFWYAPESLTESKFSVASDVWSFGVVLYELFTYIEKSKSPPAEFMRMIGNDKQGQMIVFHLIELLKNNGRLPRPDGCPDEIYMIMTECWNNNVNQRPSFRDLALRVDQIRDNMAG
Outline: as §1

MAP3K9 (MLK1) = target: T6, MAP3K9 (MLK1) (Homo sapiens, UniProt P80192)
T6 construct: purchased ThermoFisher (SelectScreen, Z'-LYTE)
T6 sequence (P80192 whole entry): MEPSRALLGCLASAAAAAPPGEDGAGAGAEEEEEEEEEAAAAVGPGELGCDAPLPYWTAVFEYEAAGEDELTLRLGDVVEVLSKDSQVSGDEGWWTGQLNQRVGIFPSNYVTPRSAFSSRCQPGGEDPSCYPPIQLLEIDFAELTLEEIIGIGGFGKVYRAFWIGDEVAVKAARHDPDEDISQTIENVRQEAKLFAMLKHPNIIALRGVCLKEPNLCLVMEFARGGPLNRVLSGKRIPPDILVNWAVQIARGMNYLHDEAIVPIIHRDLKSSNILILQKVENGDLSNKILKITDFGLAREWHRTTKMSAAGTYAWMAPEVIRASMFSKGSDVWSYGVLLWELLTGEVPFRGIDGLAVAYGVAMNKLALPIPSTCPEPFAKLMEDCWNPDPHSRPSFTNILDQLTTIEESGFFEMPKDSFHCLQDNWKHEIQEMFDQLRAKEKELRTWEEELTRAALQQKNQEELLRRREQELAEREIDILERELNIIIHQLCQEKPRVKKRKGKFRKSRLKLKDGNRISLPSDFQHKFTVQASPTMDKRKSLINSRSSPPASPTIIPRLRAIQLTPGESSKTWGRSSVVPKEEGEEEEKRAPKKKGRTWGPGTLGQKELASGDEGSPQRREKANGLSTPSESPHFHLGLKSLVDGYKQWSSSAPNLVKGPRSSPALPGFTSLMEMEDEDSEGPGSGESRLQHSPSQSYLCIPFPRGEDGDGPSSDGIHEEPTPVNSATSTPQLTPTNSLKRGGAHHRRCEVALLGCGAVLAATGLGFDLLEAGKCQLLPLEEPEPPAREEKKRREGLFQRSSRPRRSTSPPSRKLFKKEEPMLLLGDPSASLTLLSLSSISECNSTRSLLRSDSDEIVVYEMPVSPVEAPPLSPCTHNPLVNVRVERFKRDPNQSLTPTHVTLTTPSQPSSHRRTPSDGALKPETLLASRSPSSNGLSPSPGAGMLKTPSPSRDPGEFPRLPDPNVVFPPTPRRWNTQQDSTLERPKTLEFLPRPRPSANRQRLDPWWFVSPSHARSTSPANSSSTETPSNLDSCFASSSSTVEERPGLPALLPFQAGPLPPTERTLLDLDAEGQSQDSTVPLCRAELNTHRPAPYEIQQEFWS
Outline: as §1

PAK1 = target: T7, PAK1 (Homo sapiens, UniProt Q13153)
T7 construct: purchased ThermoFisher (SelectScreen, Z'-LYTE)
T7 sequence (Q13153 whole entry): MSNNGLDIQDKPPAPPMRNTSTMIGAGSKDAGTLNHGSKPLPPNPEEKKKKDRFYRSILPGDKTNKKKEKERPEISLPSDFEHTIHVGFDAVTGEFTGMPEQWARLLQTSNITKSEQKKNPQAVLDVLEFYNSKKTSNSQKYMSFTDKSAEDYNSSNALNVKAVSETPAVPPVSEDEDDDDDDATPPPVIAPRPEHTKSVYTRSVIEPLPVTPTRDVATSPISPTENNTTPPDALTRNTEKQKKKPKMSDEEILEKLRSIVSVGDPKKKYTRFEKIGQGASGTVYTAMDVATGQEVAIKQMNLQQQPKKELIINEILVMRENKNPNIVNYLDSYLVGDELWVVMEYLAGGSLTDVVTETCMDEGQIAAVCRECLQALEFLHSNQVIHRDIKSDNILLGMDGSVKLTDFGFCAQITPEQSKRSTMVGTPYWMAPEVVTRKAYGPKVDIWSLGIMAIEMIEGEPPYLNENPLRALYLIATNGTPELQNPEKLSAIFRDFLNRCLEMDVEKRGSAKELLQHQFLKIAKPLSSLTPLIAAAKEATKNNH
Outline: as §1

PAK7 (KIAA1264) = target: T8, PAK7 (KIAA1264) (Homo sapiens, UniProt Q9P286)
T8 construct: purchased ThermoFisher (SelectScreen, Z'-LYTE)
T8 sequence (Q9P286 whole entry): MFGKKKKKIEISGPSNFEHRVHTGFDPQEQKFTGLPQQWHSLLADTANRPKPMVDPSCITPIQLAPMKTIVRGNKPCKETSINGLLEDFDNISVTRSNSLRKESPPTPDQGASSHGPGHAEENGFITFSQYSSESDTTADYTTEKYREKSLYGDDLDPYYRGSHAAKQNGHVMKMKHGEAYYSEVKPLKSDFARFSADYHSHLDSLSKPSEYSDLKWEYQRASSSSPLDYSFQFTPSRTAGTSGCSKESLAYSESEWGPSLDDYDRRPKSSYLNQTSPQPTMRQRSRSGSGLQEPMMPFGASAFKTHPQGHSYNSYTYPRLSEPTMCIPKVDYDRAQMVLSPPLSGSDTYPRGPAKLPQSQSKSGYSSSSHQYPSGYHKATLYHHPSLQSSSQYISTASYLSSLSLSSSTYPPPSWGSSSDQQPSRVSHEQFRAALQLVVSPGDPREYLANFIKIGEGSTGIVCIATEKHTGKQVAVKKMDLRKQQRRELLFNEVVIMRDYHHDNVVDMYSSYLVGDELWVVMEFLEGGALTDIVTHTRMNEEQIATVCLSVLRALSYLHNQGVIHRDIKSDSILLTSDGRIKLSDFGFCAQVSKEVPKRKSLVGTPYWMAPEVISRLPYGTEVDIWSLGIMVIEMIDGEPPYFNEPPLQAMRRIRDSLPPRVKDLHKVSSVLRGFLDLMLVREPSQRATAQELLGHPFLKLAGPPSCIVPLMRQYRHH
Outline: as §1

PHKG2 = target: T9, PHKG2 (Homo sapiens, UniProt P15735)
T9 construct: purchased ThermoFisher (SelectScreen, Z'-LYTE)
T9 sequence (P15735 1-406): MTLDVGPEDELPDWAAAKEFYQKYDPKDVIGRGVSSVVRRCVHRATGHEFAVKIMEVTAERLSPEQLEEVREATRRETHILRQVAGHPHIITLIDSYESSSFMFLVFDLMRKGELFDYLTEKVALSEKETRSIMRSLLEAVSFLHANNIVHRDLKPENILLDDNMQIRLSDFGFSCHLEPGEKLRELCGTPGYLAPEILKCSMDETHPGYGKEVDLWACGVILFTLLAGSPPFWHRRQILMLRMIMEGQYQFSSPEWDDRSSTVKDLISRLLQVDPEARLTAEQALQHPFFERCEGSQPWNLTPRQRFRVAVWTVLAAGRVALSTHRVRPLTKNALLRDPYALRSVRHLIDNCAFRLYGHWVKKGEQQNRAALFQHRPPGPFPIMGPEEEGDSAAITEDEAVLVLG
Outline: as §1

ROS1 = target: T10, ROS1 (Homo sapiens, UniProt P08922)
T10 construct: purchased ThermoFisher (SelectScreen, Z'-LYTE)
Outline: as §1

ZAP70 = target: T11, ZAP70 (Homo sapiens, UniProt P43403)
T11 construct: purchased ThermoFisher (SelectScreen, Z'-LYTE)
T11 sequence (P43403 1-619): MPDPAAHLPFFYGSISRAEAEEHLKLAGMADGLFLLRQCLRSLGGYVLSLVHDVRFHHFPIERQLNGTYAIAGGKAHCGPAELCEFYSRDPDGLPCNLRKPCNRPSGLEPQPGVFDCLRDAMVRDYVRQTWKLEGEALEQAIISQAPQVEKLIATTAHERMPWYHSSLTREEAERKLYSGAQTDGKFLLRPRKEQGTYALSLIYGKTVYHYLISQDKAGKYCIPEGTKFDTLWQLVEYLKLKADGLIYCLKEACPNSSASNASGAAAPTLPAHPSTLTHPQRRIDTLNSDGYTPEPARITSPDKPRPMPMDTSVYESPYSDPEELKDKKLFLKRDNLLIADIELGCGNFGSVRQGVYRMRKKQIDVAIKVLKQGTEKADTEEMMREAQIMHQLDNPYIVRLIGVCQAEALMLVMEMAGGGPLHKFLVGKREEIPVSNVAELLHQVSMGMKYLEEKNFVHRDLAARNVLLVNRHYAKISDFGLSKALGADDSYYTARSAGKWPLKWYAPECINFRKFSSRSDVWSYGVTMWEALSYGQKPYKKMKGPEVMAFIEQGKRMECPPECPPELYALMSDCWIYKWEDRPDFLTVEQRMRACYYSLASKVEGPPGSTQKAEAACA
Outline: as §1

T1 sequence (Q9UM73 19-1620): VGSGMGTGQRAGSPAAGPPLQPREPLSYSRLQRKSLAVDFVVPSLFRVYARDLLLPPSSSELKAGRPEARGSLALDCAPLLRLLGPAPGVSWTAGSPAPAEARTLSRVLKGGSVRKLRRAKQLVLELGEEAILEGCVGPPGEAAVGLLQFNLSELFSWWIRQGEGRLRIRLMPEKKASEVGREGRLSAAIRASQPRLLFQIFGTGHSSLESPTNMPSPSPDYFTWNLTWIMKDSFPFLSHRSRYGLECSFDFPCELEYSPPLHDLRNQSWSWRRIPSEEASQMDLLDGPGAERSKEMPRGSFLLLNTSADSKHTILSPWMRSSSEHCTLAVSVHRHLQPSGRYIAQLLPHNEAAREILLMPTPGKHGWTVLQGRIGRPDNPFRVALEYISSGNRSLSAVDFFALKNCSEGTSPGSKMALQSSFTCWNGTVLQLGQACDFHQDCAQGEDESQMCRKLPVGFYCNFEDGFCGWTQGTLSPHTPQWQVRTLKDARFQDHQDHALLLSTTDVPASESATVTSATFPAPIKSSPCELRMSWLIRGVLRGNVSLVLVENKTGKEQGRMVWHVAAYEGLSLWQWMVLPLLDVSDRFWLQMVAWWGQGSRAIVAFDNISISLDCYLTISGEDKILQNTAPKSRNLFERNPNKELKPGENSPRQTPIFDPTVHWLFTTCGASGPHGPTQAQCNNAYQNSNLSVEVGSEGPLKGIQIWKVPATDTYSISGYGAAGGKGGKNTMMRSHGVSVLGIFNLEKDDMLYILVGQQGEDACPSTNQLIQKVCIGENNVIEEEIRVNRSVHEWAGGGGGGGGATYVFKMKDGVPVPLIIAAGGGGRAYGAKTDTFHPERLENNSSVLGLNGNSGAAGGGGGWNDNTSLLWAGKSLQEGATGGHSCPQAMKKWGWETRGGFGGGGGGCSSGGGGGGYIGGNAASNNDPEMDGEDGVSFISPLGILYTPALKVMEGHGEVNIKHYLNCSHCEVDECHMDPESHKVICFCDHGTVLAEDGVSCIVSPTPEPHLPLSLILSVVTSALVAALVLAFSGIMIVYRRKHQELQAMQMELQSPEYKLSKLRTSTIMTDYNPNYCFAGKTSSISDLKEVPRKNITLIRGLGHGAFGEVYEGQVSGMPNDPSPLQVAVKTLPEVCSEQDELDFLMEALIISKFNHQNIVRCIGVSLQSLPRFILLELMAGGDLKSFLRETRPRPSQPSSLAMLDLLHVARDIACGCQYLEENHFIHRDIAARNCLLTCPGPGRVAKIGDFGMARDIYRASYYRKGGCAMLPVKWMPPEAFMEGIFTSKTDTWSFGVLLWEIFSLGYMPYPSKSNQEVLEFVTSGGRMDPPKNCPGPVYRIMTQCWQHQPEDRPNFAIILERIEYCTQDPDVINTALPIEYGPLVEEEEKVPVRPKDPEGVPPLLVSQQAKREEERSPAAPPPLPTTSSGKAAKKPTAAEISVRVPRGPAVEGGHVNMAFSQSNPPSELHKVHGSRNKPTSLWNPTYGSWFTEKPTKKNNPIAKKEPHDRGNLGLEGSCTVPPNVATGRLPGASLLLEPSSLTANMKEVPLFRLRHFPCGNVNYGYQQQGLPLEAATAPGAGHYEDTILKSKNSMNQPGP

| Compound | inhibition at 10 µM (ALK) | inhibition at 10 µM (CLK3) | inhibition at 10 µM (CSNK1E (CK1 epsilon)) | inhibition at 10 µM (FLT3) | inhibition at 10 µM (JAK2 JH1 JH2) | inhibition at 10 µM (MAP3K9 (MLK1)) | inhibition at 10 µM (PAK1) | inhibition at 10 µM (PAK7 (KIAA1264)) | inhibition at 10 µM (PHKG2) | inhibition at 10 µM (ROS1) | inhibition at 10 µM (ZAP70) | also measured |
| --- | --- | --- | --- | --- | --- | --- | --- | --- | --- | --- | --- | --- |
| Cc1ncc(-c2nc(Nc3ccc(C(=O)NCCN4CCCCC4)cc3)ncc2F)n1C(C)C [Compound 3] | 78% | 71% | 81% | 101% | 76% | 92% | 51% | 71% | 79% | 99% | 19% |  |
| Cc1cc(Nc2nc(N)nn2C(=O)NC(C)C)ccc1Cl [Compound 5] | 20% | 12% | 2.61% | 55% | 25% | 69% | -12% | 26% | -2.57% | 57% | 12% |  |
| XMD8-92 [Compound 2, reference compound] |  |  |  |  |  |  |  |  |  |  |  | ALK % Inhibition (ALK; 10 µM compound, ATP Km app): 16%; CLK3 % Inhibition (CLK3; 10 µM compound, ATP Km app): 5.55%; CSNK1E (CK1 epsilon) % Inhibition (CSNK1E (CK1 epsilon); 10 µM compound, ATP Km app): 4%; FLT3 % Inhibition (FLT3; 10 µM compound, ATP Km app): 90%; JAK2 JH1 JH2 % Inhibition (JAK2 JH1 JH2; 10 µM compound, ATP Km app): 52%; MAP3K9 (MLK1) % Inhibition (MAP3K9 (MLK1); 10 µM compound, ATP Km app): 8.53%; PAK1 % Inhibition (PAK1; 10 µM compound, ATP Km app): 8%; PAK7 (KIAA1264) % Inhibition (PAK7 (KIAA1264); 10 µM compound, ATP Km app): 6%; PHKG2 % Inhibition (PHKG2; 10 µM compound, ATP Km app): 19%; ROS1 % Inhibition (ROS1; 10 µM compound, ATP Km app): 69%; ZAP70 % Inhibition (ZAP70; 10 µM compound, ATP Km app): 12% |
